The values below come from patent US8969554B2, “6-acyl-1,2,4-triazine-3,5-dione derivative and herbicides” (Kumiai Chemical Industry Co., Ltd., priority 2010, dated 2015).

For data set [1], the system named is Monochoria vaginalis. As to the kind of experiment: Herbicidal activity by paddy field soil treatment (Test Example 1). Details: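 index 0 to 10 in 10% steps of herbicidal effect with 10 meaning complete death and 0 below 10%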. The settings on record: 1000 g of effective component per hectare, evaluated on day 21 after the treatment, criteria of Table 72. Format: in vivo. The method in brief: (§1)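 Pre-emergence water-surface application one day after sowing into flooded (3 cm) paddy soil, dose 1000 g effective component per hectare from a diluted wettable powder. Plants kept in greenhouse and rated for herbicidal effect 21 days post-treatment.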

Data set [2] relates to Echinochloa oryzicola. Described as above. It is filed as in vivo. More on the design: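 index 0 to 10 in 10% steps of herbicidal effect with 10 meaning complete death and 0 below 10%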. The settings on record: 1000 g of effective component per hectare, evaluated on day 21 after the treatment, criteria of Table 72. In a few lines: as §1
Data set [3] concerns Scirpus juncoides Rocxb. The data set is described as above. It is filed as in vivo. More on the design: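 index 0 to 10 in 10% steps of herbicidal effect with 10 meaning complete death and 0 below 10%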. The conditions noted are these: applied on water surface, 1000 g of effective component per hectare, day 21 after the treatment. In a few lines: as §1
Data set [4] deals with Indian millet. Nature of the data set: Herbicidal activity by field foliage treatment (Test example 3). It is filed as in vivo. Details: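 index 0 to 10 in 10% steps of herbicidal effect with 10 meaning complete death and 0 below 10%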. The settings on record: 1000 g effective component per hectare, day 14 after the treatment. The method in brief: (§2)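 Scoring of herbicidal effect by set criteria took place 14 days post-spray. Plants had been raised 2 weeks in field soil under glass before whole-plant foliar application of diluted wettable powder (1000 g active component/ha, spray volume 1000 L/ha).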

Data set [5] relates to A. retroflexus. The description is as above. Format: in vivo. The settings on record: 1000 g effective component per hectare, day 14 after the treatment. More on the design: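 index 0 to 10 in 10% steps of herbicidal effect with 10 meaning complete death and 0 below 10%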. The method in brief: as §2
Data set [6] deals with Echinochloa crus-galli. The description is as above. Format: in vivo. Details: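 index 0 to 10 in 10% steps of herbicidal effect with 10 meaning complete death and 0 below 10%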. The conditions noted are these: 1000 g effective component per hectare, day 14 after the treatment. In a few lines: (§3)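 Herbicidal effect was rated on day 14 following a foliar spray of 1000 g active ingredient per hectare, applied as water-diluted wettable powder at 1000 L/ha. Plants had been raised for 2 weeks in field soil under greenhouse conditions before spraying.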

Data set [7] deals with Setaria viridis. The data set is described as above. Format: in vivo. The settings on record: 1000 g effective component per hectare, day 14 after the treatment. The method in brief:
as §3

For data set [8], the system named is foxtail. Nature of the data set: Herbicidal activity by field soil treatment (Test example 2). Format: in vivo. The conditions noted are these: 1000 g effective component per hectare, day 21 after the treatment. In a few lines: (§4)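 Pre-emergence soil spray: wettable-powder formulation in water at 1000 g active ingredient per hectare (1000 L/ha) onto freshly sown, soil-covered seeds in field soil. Scoring of herbicidal effect by defined criteria 21 days post-treatment, plants kept in a greenhouse.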

Data set [9] has as its system Indian millet. Described as above. It is filed as in vivo. The conditions noted are these: 1000 g effective component per hectare, day 21 after the treatment. Details: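 index 0 to 10 in 10% steps of herbicidal effect with 10 meaning complete death and 0 below 10%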. The method in brief:
as §4

Data set [10] has as its system Echinochloa crus-galli. The data set is described as above. The conditions noted are these: 1000 g effective component per hectare, day 21 after the treatment. Details: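 index 0 to 10 in 10% steps of herbicidal effect with 10 meaning complete death and 0 below 10%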. Format: in vivo. The method in brief:
as §4

Data set [11] has as its system A. retroflexus. The data set is described as above. It is filed as in vivo. Details: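 index 0 to 10 in 10% steps of herbicidal effect with 10 meaning complete death and 0 below 10%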. The conditions noted are these: 1000 g effective component per hectare, day 21 after the treatment. In a few lines: as §4
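For herbicidal effect index, Setaria viridis in this document: index 0 to 10 in 10% steps of herbicidal effect with 10 meaning complete death and 0 below 10%.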

On to `Cc1ccc(-n2c(=O)c(C(=O)C3=C(O)CCCC3=O)nn(C)c2=O)cn1` [I-289], for which the “Herbicidal effects index number, Monochoria vaginalis” value in [1] was 10. Moreover, in data set [2], the “Herbicidal effects index number, Echinochloa oryzicola” value is listed as 10. Besides, the “herbicidal effect index, S. juncoides Rocxb.” value in [3] came out at 10. Moreover, the “herbicidal effect index, Abutilon theophrasti” value in [4] and in data set [9] was 9 each time. In addition, the “herbicidal effect index, Amaranthus retroflexus” value in [5] and in data set [11] was 10 in each case. Further, the “herbicidal effect index, Echinochloa crus-galli” value in data set [6] and in [10] was 9 in each case. For the same compound, the “herbicidal effect index, Setaria viridis” value in [7] and in data set [8] was 7 each time.
Take `COc1cc(-n2c(=O)c(C(=O)C3=C(O)CCCC3=O)nn(C)c2=O)c(F)cc1Cl` [I-297]: the “Herbicidal effects index number, Monochoria vaginalis” value in data set [1] came to 10. Moreover, the “Herbicidal effects index number, Echinochloa oryzicola” value in data set [2] was 10. The “herbicidal effect index, S. juncoides Rocxb.” value in data set [3] was found to be 10. For the same compound, the “herbicidal effect index, Abutilon theophrasti” value is 8 in data set [4] and 9 in [9]. The results for the “herbicidal effect index, Amaranthus retroflexus” value in data set [5] and in data set [11] were 8 and 10, respectively. Besides, the “herbicidal effect index, Echinochloa crus-galli” value came to 9 in data set [6] and 10 in data set [10]. Also, the “herbicidal effect index, Setaria viridis” value in [7] and in data set [8] was 9 each time.
Take `COc1ccc(-n2c(=O)c(C(=O)C3=C(O)CCCC3=O)nn(C)c2=O)c(OC)c1OC` [I-298]: the “Herbicidal effects index number, Monochoria vaginalis” value in data set [1] came out at 10. For the same compound, the “Herbicidal effects index number, Echinochloa oryzicola” value in [2] is listed as 10. The “herbicidal effect index, S. juncoides Rocxb.” value in [3] is 10. For the same compound, the “herbicidal effect index, Abutilon theophrasti” value in data set [4] is on record as 9; in [9], 10. The “herbicidal effect index, Amaranthus retroflexus” value in data set [5] and in data set [11] was 10 throughout. Besides, the “herbicidal effect index, Echinochloa crus-galli” value in data set [6] was 10; in data set [10] it was 7. In addition, the “herbicidal effect index, Setaria viridis” value in data set [7] amounted to 8; in data set [8], 7.
On to `Cn1nc(C(=O)C2=C(O)CCCC2=O)c(=O)n(C2C=CCCC2)c1=O` (centres unmarked) [I-303], for which the “Herbicidal effects index number, Monochoria vaginalis” value in [1] came out at 10. Also, in data set [2], the “Herbicidal effects index number, Echinochloa oryzicola” value is given as 10. Further, the “herbicidal effect index, S. juncoides Rocxb.” value in data set [3] worked out at 10. The “herbicidal effect index, Abutilon theophrasti” value in data set [4] and in data set [9] was 9 throughout. The “herbicidal effect index, Amaranthus retroflexus” value in data set [5] and in data set [11] was 10 throughout. The “herbicidal effect index, Echinochloa crus-galli” value turned out to be 8 in [6] and 9 in [10]. Besides, the “herbicidal effect index, Setaria viridis” value in [7] was 10; in [8], 9.
Regarding `Cn1nc(C(=O)C2=C(O)CCCC2=O)c(=O)n(N2CCCCC2)c1=O` [I-304], the “Herbicidal effects index number, Monochoria vaginalis” value in data set [1] was found to be 10. Moreover, the “Herbicidal effects index number, Echinochloa oryzicola” value in data set [2] came out at 10. Besides, the “herbicidal effect index, S. juncoides Rocxb.” value in [3] is listed as 10. Also, the entries for the “herbicidal effect index, Abutilon theophrasti” value in [4] and in data set [9] were 9 and 10, respectively. Besides, the “herbicidal effect index, Amaranthus retroflexus” value in data set [5] and in data set [11] was 10 throughout. Also, the “herbicidal effect index, Echinochloa crus-galli” value in data set [6] and in data set [10] was 10 each time. Also, the results for the “herbicidal effect index, Setaria viridis” value in data set [7] and in data set [8] were 10 and 9, respectively.
`Cn1nc(C(=O)O)c(=O)n(-c2ccccc2)c1=O` [V-50, 2-methyl-3,5-dioxo-4-phenyl-2,3,4,5-tetrahydro-1,2,4-triazine-6-carboxylic acid] had a melting point of 195 to 198 °C.
`Cn1nc(C(=O)O)c(=O)n(-c2ccccc2C#N)c1=O` [V-72, 2-methyl-3,5-dioxo-4-(2-cyanophenyl)-2,3,4,5-tetrahydro-1,2,4-triazine-6-carboxylic acid]: the melting point is 213 to 215 °C.
As for `CC1CC(C)(C)C(=O)C(C(=O)c2nn(C)c(=O)n(-c3ccccc3)c2=O)=C1O` (centres unmarked) [VI-7], the “Herbicidal effects index number, Monochoria vaginalis” value in [1] came out at 10. For the same compound, the “Herbicidal effects index number, Echinochloa oryzicola” value in data set [2] was 10. For the same compound, in data set [3], the “herbicidal effect index, S. juncoides Rocxb.” value is listed as 10. Moreover, the “herbicidal effect index, Abutilon theophrasti” value in data set [4] and in [9] was 10 throughout. Also, the “herbicidal effect index, Amaranthus retroflexus” value in [5] and in [11] was 10 each time. The “herbicidal effect index, Echinochloa crus-galli” value in data set [6] and in data set [10] was 10 throughout. Moreover, the “herbicidal effect index, Setaria viridis” value in data set [7] and in data set [8] was 10 in each case.

As a reminder, the melting point is the temperature, or range, at which the solid turns liquid.
